Laboratory results: PubChem BioAssay AID256 (DTP/NCI, 2004)
Values joined by “and” are separate entries in the source; they are usually repeats but may differ in a detail not shown here. Equal entries are not always repeated. Inconclusive results and toxic doses are left out.

System: CD2F1 mice, L1210 leukemia ip, survival T/C
Assay: NCI In Vivo Anticancer Drug Screen. Data for tumor model L1210 Leukemia (intraperitoneal) in CD2F1 (CDF1) mice
Details: higher = longer survival
Summary of the method: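 Vehicle-treated tumor-bearing mice served as controls (C) for compound-treated mice (T). Reported figure is T divided by C.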

[1] = endpoint: mean survival time, dose: 100.0 mg/kg/injection, schedule: Q01DX001 (ip), vehicle: saline with Tween-80
[2] = endpoint: mean survival time, dose: 200.0 mg/kg/injection, schedule: Q01DX001 (ip), vehicle: saline with Tween-80
[3] = endpoint: mean survival time, dose: 400.0 mg/kg/injection, schedule: Q01DX001 (ip), vehicle: saline with Tween-80
[4] = endpoint: mean survival time, dose: 75.0 mg/kg/injection, schedule: Q01DX001 (ip), vehicle: other
[5] = endpoint: mean survival time, dose: 50.0 mg/kg/injection, schedule: Q01DX009 (ip), vehicle: saline with Tween-80
[6] = endpoint: mean survival time, dose: 100.0 mg/kg/injection, schedule: Q01DX009 (ip), vehicle: saline with Tween-80
[7] = endpoint: mean survival time, dose: 200.0 mg/kg/injection, schedule: Q01DX009 (ip), vehicle: saline with Tween-80
[8] = endpoint: mean survival time, dose: 6.25 mg/kg/injection, schedule: Q04DX003 (ip), vehicle: saline with Tween-80
[9] = endpoint: mean survival time, dose: 12.5 mg/kg/injection, schedule: Q04DX003 (ip), vehicle: saline with Tween-80
[10] = endpoint: mean survival time, dose: 25.0 mg/kg/injection, schedule: Q04DX003 (ip), vehicle: saline with Tween-80
[11] = endpoint: mean survival time, dose: 100.0 mg/kg/injection, schedule: Q04DX003 (ip), vehicle: saline with Tween-80
[12] = endpoint: mean survival time, dose: 100.0 mg/kg/injection, schedule: Q04DX003 (ip), vehicle: saline
[13] = endpoint: mean survival time, dose: 200.0 mg/kg/injection, schedule: Q04DX003 (ip), vehicle: saline with Tween-80

With `COc1cc(C2CC(C)(O)Oc3cc4c(cc32)OCO4)cc(OC)c1OC` (stereo unspecified) the T/C (endpoint: median survival time, dose: 25.0 mg/kg/injection, schedule: Q01DX005 (ip), vehicle: saline with Tween-80) was 106 % of control, the T/C (endpoint: median survival time, dose: 50.0 mg/kg/injection, schedule: Q01DX005 (ip), vehicle: saline with Tween-80) was 114 % of control and the T/C (endpoint: median survival time, dose: 86.0 mg/kg/injection, schedule: Q01DX005 (ip), vehicle: saline with Tween-80) was 119 % of control. The T/C (endpoint: median survival time, dose: 100.0 mg/kg/injection, schedule: Q01DX005 (ip), vehicle: saline with Tween-80) was 110 % of control, the T/C (endpoint: median survival time, dose: 144.0 mg/kg/injection, schedule: Q01DX005 (ip), vehicle: saline with Tween-80) was 160 % of control and the T/C (endpoint: median survival time, dose: 200.0 mg/kg/injection, schedule: Q01DX005 (ip), vehicle: saline with Tween-80) was 102 % of control. The T/C (endpoint: median survival time, dose: 240.0 mg/kg/injection, schedule: Q01DX005 (ip), vehicle: saline with Tween-80) was 102 % of control.

With `CC(=O)NC(C(=O)O)C(C)C.CC(=O)NC(C(=O)O)C(C)C.[NH-]C1CCCCC1[NH-].[Pt+2]` (stereo unspecified) the T/C (endpoint: median survival time, dose: 3.12 mg/kg/injection, schedule: Q04DX003 (ip), vehicle: saline) was 102 % of control and 107 % of control and 108 % of control, the T/C (endpoint: median survival time, dose: 6.25 mg/kg/injection, schedule: Q04DX003 (ip), vehicle: saline) was 107 % of control [middle of 4 runs] and the T/C (endpoint: median survival time, dose: 12.5 mg/kg/injection, schedule: Q04DX003 (ip), vehicle: saline) was 112 % of control [middle of 4 runs]. The T/C (endpoint: median survival time, dose: 25.0 mg/kg/injection, schedule: Q04DX003 (ip), vehicle: saline) was 112 % of control [middle of 4 runs], the T/C (endpoint: median survival time, dose: 50.0 mg/kg/injection, schedule: Q04DX003 (ip), vehicle: saline) was 122 % of control and 119 % of control and the T/C (endpoint: median survival time, dose: 200.0 mg/kg/injection, schedule: Q04DX003 (ip), vehicle: saline) was 187 % of control [middle of 4 runs].

`O=C1C=C(NCCO)C(=O)C=C1NCCO` was tested, and the T/C [1] was 98 % of control, the T/C [2] was 90 % of control and the T/C [3] was 95 % of control.

In the case of `CC(=O)OC(c1ccccc1)C(OC(C)=O)c1ccccc1` (stereo unspecified), the T/C [4] is reported as 104 % of control, the T/C (endpoint: mean survival time, dose: 150.0 mg/kg/injection, schedule: Q01DX001 (ip), vehicle: other) is reported as 102 % of control and the T/C (endpoint: mean survival time, dose: 300.0 mg/kg/injection, schedule: Q01DX001 (ip), vehicle: other) is reported as 88 % of control.

With `CC(C)(C)C(=O)OCC1OC(n2ccc(O)cc2=O)C(O)C1O` (stereo unspecified) the T/C (endpoint: median survival time, dose: 67.0 mg/kg/injection, schedule: Q01DX009 (ip), vehicle: saline + Tween-80 + alcohol) was 168 % of control, the T/C (endpoint: median survival time, dose: 100.0 mg/kg/injection, schedule: Q01DX009 (ip), vehicle: saline + Tween-80 + alcohol) was 163 % of control and the T/C (endpoint: median survival time, dose: 150.0 mg/kg/injection, schedule: Q01DX009 (ip), vehicle: saline + Tween-80 + alcohol) was 150 % of control. For the same molecule, the T/C (endpoint: median survival time, dose: 225.0 mg/kg/injection, schedule: Q01DX009 (ip), vehicle: saline + Tween-80 + alcohol) was 154 % of control.

In the case of `CC(=O)OCC1OC(n2ncc3c(Sc4c([N+](=O)[O-])ncn4C)ncnc32)C(OC(C)=O)C1OC(C)=O` (stereo unspecified), the T/C (endpoint: mean survival time, dose: 25.0 mg/kg/injection, schedule: Q01DX009 (ip), vehicle: other) is reported as 100 % of control, the T/C (endpoint: mean survival time, dose: 50.0 mg/kg/injection, schedule: Q01DX009 (ip), vehicle: other) is reported as 102 % of control and the T/C (endpoint: mean survival time, dose: 100.0 mg/kg/injection, schedule: Q01DX009 (ip), vehicle: other) is reported as 100 % of control.

`CC(=O)CC(=O)c1ccccc1.CC(=O)CC(=O)c1ccccc1.[Pd]` was tested, and the T/C (endpoint: mean survival time, dose: 3.13 mg/kg/injection, schedule: Q04DX003 (ip), vehicle: distilled water + Tween-80) was 98 % of control, the T/C (endpoint: mean survival time, dose: 6.25 mg/kg/injection, schedule: Q04DX003 (ip), vehicle: distilled water + Tween-80) was 89 % of control and the T/C (endpoint: mean survival time, dose: 12.5 mg/kg/injection, schedule: Q04DX003 (ip), vehicle: distilled water + Tween-80) was 100 % of control. The T/C (endpoint: mean survival time, dose: 25.0 mg/kg/injection, schedule: Q04DX003 (ip), vehicle: distilled water + Tween-80) was 86 % of control, the T/C (endpoint: mean survival time, dose: 50.0 mg/kg/injection, schedule: Q04DX003 (ip), vehicle: distilled water + Tween-80) was 87 % of control and the T/C (endpoint: mean survival time, dose: 100.0 mg/kg/injection, schedule: Q04DX003 (ip), vehicle: distilled water + Tween-80) was 89 % of control. For the same molecule, the T/C (endpoint: mean survival time, dose: 200.0 mg/kg/injection, schedule: Q04DX003 (ip), vehicle: distilled water + Tween-80) was 93 % of control.

In the case of `Cc1cc(C)c(S(=O)(=O)Nc2cc(C)ccc2C)c(C)c1`, the T/C [1] is reported as 98 % of control, the T/C [2] is reported as 96 % of control and the T/C [3] is reported as 102 % of control.

In the case of `O=S(=O)(Cl)c1ccc(-c2ccc(S(=O)(=O)Cl)cc2)cc1`, the T/C (endpoint: mean survival time, dose: 100.0 mg/kg/injection, schedule: Q04DX003 (ip), vehicle: Klucel (hydroxypropylcellulose) (HPC)) is reported as 95 % of control, the T/C (endpoint: mean survival time, dose: 200.0 mg/kg/injection, schedule: Q04DX003 (ip), vehicle: Klucel (hydroxypropylcellulose) (HPC)) is reported as 106 % of control and the T/C (endpoint: mean survival time, dose: 400.0 mg/kg/injection, schedule: Q04DX003 (ip), vehicle: Klucel (hydroxypropylcellulose) (HPC)) is reported as 103 % of control.

With `COc1cc(OC)c(NC(=O)OCCOc2ccc([N+](=O)[O-])cc2)cc1Cl` the T/C [5] was 90 % of control, the T/C [6] was 86 % of control and the T/C [7] was 97 % of control.

For `N=c1c2ncn(C3CCCC3)c2ncn1Cc1ccc([N+](=O)[O-])cc1`, the T/C [4] was 106 % of control.

`COP(=O)(OC)OCC1OC(c2n[nH]c(C(N)=O)c2O)C(O)C1O` (stereo unspecified) was tested, and the T/C (endpoint: median survival time, dose: 8.13 mg/kg/injection, schedule: Q01DX005 (ip), vehicle: saline) was 100 % of control, the T/C (endpoint: median survival time, dose: 16.25 mg/kg/injection, schedule: Q01DX005 (ip), vehicle: saline) was 102 % of control and the T/C (endpoint: median survival time, dose: 32.5 mg/kg/injection, schedule: Q01DX005 (ip), vehicle: saline) was 101 % of control. For the same molecule, the T/C (endpoint: median survival time, dose: 65.0 mg/kg/injection, schedule: Q01DX005 (ip), vehicle: saline) was 111 % of control and the T/C (endpoint: median survival time, dose: 130.0 mg/kg/injection, schedule: Q01DX005 (ip), vehicle: saline) was 111 % of control.

With `Cl` the T/C (endpoint: mean survival time, dose: 6.25 mg/kg/injection, schedule: Q01DX009 (ip), vehicle: saline sonified) was 103 % of control, the T/C [8] was 100 % of control and the T/C (endpoint: mean survival time, dose: 12.5 mg/kg/injection, schedule: Q01DX009 (ip), vehicle: saline sonified) was 101 % of control. The T/C [9] was 98 % of control, the T/C (endpoint: mean survival time, dose: 25.0 mg/kg/injection, schedule: Q01DX009 (ip), vehicle: saline sonified) was 106 % of control and the T/C [10] was 98 % of control.

For `O=C1C=CC(=O)N1c1ccc(O)cc1`, the T/C (endpoint: mean survival time, dose: 1.25 mg/kg/injection, schedule: Q01DX009 (ip), vehicle: saline with Tween-80) was 100 % of control, the T/C (endpoint: mean survival time, dose: 2.5 mg/kg/injection, schedule: Q01DX009 (ip), vehicle: saline with Tween-80) was 98 % of control and the T/C (endpoint: mean survival time, dose: 5.0 mg/kg/injection, schedule: Q01DX009 (ip), vehicle: saline with Tween-80) was 93 % of control. The T/C (endpoint: mean survival time, dose: 5.0 mg/kg/injection, schedule: Q04DX003 (ip), vehicle: saline with Tween-80) was 98 % of control.

In the case of `CCC(O)C[As](=O)(O)c1ccccc1Cl` (stereo unspecified), the T/C [8] is reported as 107 % of control, the T/C [9] is reported as 98 % of control and the T/C [10] is reported as 104 % of control.

With `Clc1nc(Cl)c(Nc2ccn[nH]2)nc1Cl` the T/C (endpoint: mean survival time, dose: 100.0 mg/kg/injection, schedule: Q04DX003 (ip), vehicle: saline sonified) was 100 % of control, the T/C (endpoint: mean survival time, dose: 200.0 mg/kg/injection, schedule: Q04DX003 (ip), vehicle: saline sonified) was 98 % of control and the T/C (endpoint: mean survival time, dose: 400.0 mg/kg/injection, schedule: Q04DX003 (ip), vehicle: saline sonified) was 95 % of control.

With `CCCCC(=O)n1c(Cl)c(/C=N\NC(N)=S)c2ccccc21` the T/C [10] was 101 % of control, the T/C (endpoint: mean survival time, dose: 50.0 mg/kg/injection, schedule: Q04DX003 (ip), vehicle: saline with Tween-80) was 101 % of control and the T/C [11] was 108 % of control.

With `COc1ccc2c(c1OC)C1C3CC=CC3C2C2=[N+]1CCc1cc3c(cc12)OCO3` (stereo unspecified) the T/C (endpoint: mean survival time, dose: 12.5 mg/kg/injection, schedule: Q04DX003 (ip), vehicle: saline) was 97 % of control, the T/C (endpoint: mean survival time, dose: 25.0 mg/kg/injection, schedule: Q04DX003 (ip), vehicle: saline) was 104 % of control and the T/C [12] was 97 % of control.

In the case of `CCOc1ccc(NC(=S)N(C)C)cc1`, the T/C [5] is reported as 94 % of control, the T/C [6] is reported as 94 % of control and the T/C [11] is reported as 89 % of control. For the same molecule, the T/C [7] was 90 % of control and the T/C [13] was 96 % of control.

`COP(=O)(OC)C(=O)c1cccc2ccccc12` was tested, and the T/C [11] was 95 % of control, the T/C [13] was 93 % of control and the T/C (endpoint: mean survival time, dose: 400.0 mg/kg/injection, schedule: Q04DX003 (ip), vehicle: saline with Tween-80) was 96 % of control.

`CC1(C)COC(=O)N1` was tested, and the T/C (endpoint: mean survival time, dose: 75.0 mg/kg/injection, schedule: Q01DX009 (ip), vehicle: saline with Tween-80) was 104 % of control, the T/C [12] was 108 % of control and the T/C (endpoint: mean survival time, dose: 150.0 mg/kg/injection, schedule: Q01DX009 (ip), vehicle: saline with Tween-80) was 101 % of control.
